Data on twelve compounds can be found in patent US8541576B2, “Substituted pyrazolo-quinazoline derivatives as kinase inhibitors” (Nerviano Medical Sciences SRL, priority 2010, dated 2013).

One experiment has as its target T1, Full-length human PIM-1 (Homo sapiens, UniProt P11309).
T1 construct: Full-length human PIM-1 was expressed and purified; made in house
The experiment can be described thus: Biochemical assay for inhibitors of PIM-1 kinase activity (trans-phosphorylation, Dowex resin, 33P-ATP). The settings on record: ATP 200 μM, enzyme 1 nM, Aktide 25 μM. Here is the method:
Biochemical assay for inhibitors of PIM-1 kinase activity
The inhibitory activity of putative kinase inhibitors and the potency of selected compounds were determined using a trans-phosphorylation assay.
Specific peptide or protein substrates are trans-phosphorylated by their specific ser-thr or tyr kinase in the presence of ATP traced with ^33P-γ-ATP, and in the presence of their own optimal buffer and cofactors.
At the end of the phosphorylation reaction, more than 98% unlabeled ATP and radioactive ATP is captured by an excess of the ion exchange Dowex® resin; the resin then settles down to the bottom of the reaction plate by gravity.
Supernatant is subsequently withdrawn and transferred into a counting plate, then evaluated by β-counting.
The buffer for PIM-1 assay was composed of HEPES 50 mM, at pH 7.5, with 10 mM MgCl2, 1 mM DTT, 3 μM NaVO3, and 0.2 mg/ml BSA
Full-length human PIM-1 was expressed and purified as described in Bullock A N, et al., J. Biol. Chem. 2005, 280, 41675-82.
1.7 μM PIM1 was incubated 1 hour RT at 28° C. in the presence of 125 μM ATP
ATP concentration: 200 μM
Enzyme concentration: 1 nM
Substrate concentration Aktide (Chemical Abstract Service Registry Number 324029-01-8): 25 μM
The test mix consisted of:
1) 3× Enzyme mix (done in Kinase Buffer 3×), 5 μL/well
2) 3× substrate and ATP mix (done in ddH2O), together with ^33P-γ-ATP, 5 μL/well
3) 3× test compounds (diluted into ddH2O—3% DMSO)-5 μL/well
For IC50 determination, test compounds are received as a 1 mM solution in 100% DMSO and distributed into 96-well plates: compounds are then plated into the first column of a new 96-well plate (A1 to G1), 100 μl/well.
An automated station (Biomek FX®, Beckman) is used for serial dilutions, producing 1:3 dilutions in 100% DMSO, from line A1 to A10, for all the compounds in the column. Moreover, 4-5 copies of daughter plates are prepared by reformatting 5 μL of this first set of 100% DMSO dilution plates into 384-deep well plates: one copy of these serial dilution plates with the test compounds is thawed on the day of study, reconstituted at the working concentration (3-fold the final concentration) with 162 μL/well of water and used for IC50 determination assays. In a standard experiment, the highest concentration (3×) of compounds is typically 30 μM, while the lowest one is typically 1.5 nM.
Each 384-well plate generates at least one curve of the standard inhibitor staurosporine and reference wells (total enzyme activity vs. no enzymatic activity) for evaluation of Z′ and signal to background (S/B) ratio.
384-well plates, V bottom (test plates) are prepared with 5 μl of compound diluted as previously described (3×) and then placed onto a PlateTrak® 12 robotized station (Perkin Elmer; the robot has one 384-tip pipetting head for assay start, plus one 96-tip head for dispensing resin) together with one reservoir for Enzyme mix (3×) and one for ATP mix (3×).
Data are analyzed by an internally customized version of the “Assay Explorer®” SW package, which provides sigmoidal fitting of the ten-dilution curves for IC50 determination in secondary assay/hit confirmation routines.

In another experiment the test system is BaF3 parental line. Description: In vitro cell proliferation potency assay, BaF3 parental line with IL-3 (Cell Titer Glo). Type of experiment: cell-based, murine. To be noted: Mus musculus; BaF3 parental cells with mIL-3, incubated overnight; read-out: Prolif BaF3 IL3 (EC50). From the text:
(§1) BaF3 is a murine interleukin-3 dependent pro-B cell line, useful as a model system for assessing both the potency and downstream signaling of kinase oncogenes (“Ba/F3 cells and their use in kinase drug discovery”, Warmuth, M, et al, (January 2007) Current Opinion in Oncology, Vol 19(1):55-60). BaF3 parental line was obtained from the DSMZ repository. BaF3 lines transfected with PIM1 or PIM2 were generated. Mouse IL-3 was purchased from R&D Systems. G418 was purchased from Clontech. Media for BaF3 parental line contained RPMI, 10% FBS, 2 mM L-Glutamine, 2 ng/mL mIL-3. Media for BaF3 PIM1 & 2 lines contained RPMI, 10% FBS, 2 mM L-Glutamine, […]. Media for MM1.S (multiple myeloma cells) line contained RPMI, 10% FBS, 2 mM L-Glutamine.
(§2) Parental cells, BaF3 PIM1 cells, BaF3 PIM2 cells, and MM1.S (multiple myeloma) cells were seeded at 2 k/well, 5 k/well, 5 k/well, and 10 k/well respectively, in a 384-well plate, at 45 μL/well. Test compound was added at 5 μL/well. BaF3 cells (parental and transfected) were incubated overnight, while MM1.S cells were incubated for 72 hours at 37° C., 5% CO2. CELL TITER GLO® Reagent (Promega) was added at 50 μL/well, the plates were incubated for 30 minutes, and their luminescence read on an HT Analyst. IC50/EC50 values for the test compound were calculated.
For orientation: Cellular ATP, detected with luciferase, serves as a proxy for viable cell number.

The next experiment has as its system BaF3 PIM1 cells. Description: In vitro cell proliferation potency assay, BaF3 transfected with PIM1 (Cell Titer Glo). Type of experiment: cell-based, murine. The settings on record: Mus musculus, incubated overnight, read-out: Prolif BaF3 PIM1 (EC50).
Text: as §1, §2

The next experiment addresses T2, Full-length human PIM-2 (Homo sapiens, UniProt Q9P1W9).
T2 construct: Full-length human PIM-2 was expressed and purified; made in house
The experiment can be described thus: PIM-2 kinase inhibition assay: Dowex technique. Type of experiment: biochemical. The settings on record: ATP 4 μM, enzyme 1.5 nM, Aktide 5 μM. Here is the method:
Method for PIM-2 Kinase Inhibition Assay: Dowex Technique
The buffer for PIM-2 assay was composed of HEPES 50 mM, at pH 7.5, with 1 mM MgCl2, 1 mM DTT, 3 μM Na3VO4, and 0.2 mg/ml BSA
Full-length human PIM-2 was expressed and purified as described in Fedorov O, et al. (2007) PNAS 104, 51, 20523-28.
Assay Conditions (Final Concentrations):
Enzyme concentration=1.5 nM
Aktide substrate (Chemical Abstract Service Registry Number 324029-01-8)=5 μM
See above: same procedure as described for PIM-1.

Experiment [1] relates to MV-4-11 (biphenotypic B myelomonocytic leukemia) cells. The experiment can be described thus: In vitro cell proliferation assay (CellTiter-Glo). To be noted: Homo sapiens, MV4-11, antiproliferative activity, 72 hours. Type of experiment: cell-based. Here is the method: In Vitro Cell Proliferation Assay:
MV-4-11 (biphenotypic B myelomonocytic leukemia) cells (1250 cells/well) were seeded in white 384 well-plates in complete medium (RPMI 1640 or EMEM plus 10% Fetal bovine serum) and treated with compounds dissolved in 0.1% DMSO, 24 h after seeding. The cells were incubated at 37° C. and 5% CO2 and after 72 hours the plates were processed using CellTiter-Glo® assay (Promega) following the manufacturer's instruction. CellTiter-Glo® is a homogenous method based on the quantification of the ATP present, an indicator of metabolically active cells. ATP is quantified using a system based on luciferase and D-luciferin resulting into light generation. The luminescent signal is proportional to the number of cells present in culture.
Briefly 25 μl/well reagent solution was added to each wells and after 5 minutes shacking microplates were red by Envision® (PerkinElmer) luminometer. The luminescent signal was proportional to the number of cells present in culture.
Inhibitory activity was evaluated comparing treated versus control data using Assay Explorer (MDL) program. IC50 was calculated using sigmoidal interpolation curve.

Experiment [2] concerns phosphorylation of BAD at Ser112 by PIM kinases. The experiment can be described thus: Western blot of phospho-BAD (Ser112) in MV-4-11 cells. Type of experiment: cell-based, human. The settings on record: different concentrations, 3 hours, compared to DMSO treated cells, FIG. 2. Here is the method: To further establish that the cytotoxicity of the compounds of the present invention resulted from the inhibition of PIM kinases, we examined the phosphorylation of the pro-apoptotic protein BAD by PIM kinases in the presence or absence of PIM inhibitors in MV-4-11 leukemia cell lines.
MV-4-11 cells were plated in 6 well plates at 1.5×10^6 cells/ml and treated with different concentrations of PIM-inhibitors for 3 hours. Cells were harvested, washed with PBS buffer and lysed with lysis buffer (2% SDS, 100 mM Tris ph 7.5, 1:100 Phosphatase Inhibitor Cocktail 1 (SIGMA) and 1:100 Phosphatase Inhibitor Cocktail 2(SIGMA) and Complete Protease Inhibitor (Roche). The protein concentration in the lysates was quantified using the BCA Protein Assay Kit (Pierce). Equal amounts of protein were loaded onto 4-12% gradient Tri-glycine gel for SDS-PAGE analysis. Then the proteins were transferred to PVDF membranes (Millipore) for Western Blotting. Membranes were probed with the antibody for phospho-Bad (Ser112) (Cell Signaling Technologies).
In general terms: A western blot detects proteins with antibodies after separation by electrophoresis.

T1 sequence (P11309 whole entry): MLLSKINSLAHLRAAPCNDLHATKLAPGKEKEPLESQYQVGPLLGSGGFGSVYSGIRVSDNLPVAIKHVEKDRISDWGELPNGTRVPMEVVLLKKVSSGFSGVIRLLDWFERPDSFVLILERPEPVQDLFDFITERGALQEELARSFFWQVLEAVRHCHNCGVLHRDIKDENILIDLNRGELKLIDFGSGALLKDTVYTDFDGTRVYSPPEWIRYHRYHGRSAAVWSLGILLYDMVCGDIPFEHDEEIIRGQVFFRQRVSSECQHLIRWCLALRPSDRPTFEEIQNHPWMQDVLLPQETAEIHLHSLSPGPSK
T2 sequence (Q9P1W9 whole entry): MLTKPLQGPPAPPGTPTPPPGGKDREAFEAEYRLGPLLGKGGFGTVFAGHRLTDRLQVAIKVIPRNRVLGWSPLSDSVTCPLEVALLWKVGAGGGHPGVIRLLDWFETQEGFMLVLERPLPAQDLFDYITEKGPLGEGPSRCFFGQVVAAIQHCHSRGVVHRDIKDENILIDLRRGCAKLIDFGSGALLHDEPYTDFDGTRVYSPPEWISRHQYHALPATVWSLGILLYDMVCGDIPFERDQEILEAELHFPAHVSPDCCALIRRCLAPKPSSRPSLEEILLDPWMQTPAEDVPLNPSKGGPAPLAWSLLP

As for `CN1CCN(c2ccc(Oc3ncc4ccc5c(C(N)=O)nn(C(C)(C)C)c5c4n3)cc2)CC1` [Compound 51, 1-tert-butyl-8-[4-(4-methylpiperazin-1-yl)phenoxy]-1H-pyrazolo[4,3-h]quinazoline-3-carboxamide], the IC50 was determined as 4 nM against Full-length human PIM-1, 15 nM against Full-length human PIM-2 and 192 nM in experiment [1]. Further, the EC50 worked out at 9300 nM in the experiment with BaF3 parental line and 210 nM with BaF3 PIM1 cells.
In the case of `CSc1ncc2ccc3c(C(N)=O)nn(C(C)(C)C)c3c2n1` [Compound 85, 1-tert-butyl-8-(methylsulfanyl)-1H-pyrazolo[4,3-h]quinazoline-3-carboxamide], the figures for the IC50 (on Full-length human PIM-1; against Full-length human PIM-2; in experiment [1]) were 1 nM, 2 nM and 103 nM, respectively. Besides, the EC50 in the experiment with BaF3 parental line is 13000 nM; with BaF3 PIM1 cells, 310 nM. Besides, the “levels of pBAD (s112) by western blot” value in experiment [2] is “dose dependent reduction”.
As to `CSc1ncc2ccc3c(C(N)=O)nn(C4CCC(N)CC4)c3c2n1` (centres unmarked) [Compound 93, 1-(4-aminocyclohexyl)-8-(methylsulfanyl)-1H-pyrazolo[4,3-h]quinazoline-3-carboxamide], the figures for the IC50 (at Full-length human PIM-1; on Full-length human PIM-2; in experiment [1]) were 1 nM, 1 nM and 448 nM, respectively. The values for the EC50 with BaF3 parental line and in the experiment on BaF3 PIM1 cells were 7900 nM and 44 nM, respectively.
Turning to `CSc1ncc2ccc3c(C(N)=O)nn(CC4CCCNC4)c3c2n1` (centres unmarked) [Compound 94, 8-(methylsulfanyl)-1-(piperidin-3-ylmethyl)-1H-pyrazolo[4,3-h]quinazoline-3-carboxamide], the IC50 against Full-length human PIM-1 came out at 80 nM; at Full-length human PIM-2 it was 311 nM; in experiment [1], 534 nM.
For `COc1ncc2ccc3c(C(N)=O)nn(C4CCNCC4)c3c2n1` [Compound 97, 8-methoxy-1-(piperidin-4-yl)-1H-pyrazolo[4,3-h]quinazoline-3-carboxamide], in that order: 154 nM, 271 nM and 294 nM.
For `CSc1ncc2ccc3c(C(N)=O)nn([C@@H]4C[C@H]5CC[C@@H](C4)N5)c3c2n1` [Compound 99, 1-[(3-exo)-8-azabicyclo[3.2.1]oct-3-yl]-8-(methylsulfanyl)-1H-pyrazolo[4,3-h]quinazoline-3-carboxamide], in that order: 16 nM, 33 nM and 102 nM.
On to `CSc1ncc2ccc3c(C(N)=O)nn(C(C)CCN)c3c2n1` (centres unmarked) [Compound 102, 1-(4-aminobutan-2-yl)-8-(methylsulfanyl)-1H-pyrazolo[4,3-h]quinazoline-3-carboxamide], for which the IC50 on Full-length human PIM-1 came out at 1 nM; on Full-length human PIM-2 it was 1 nM; in experiment [1] it was 35 nM.
With `CSc1ncc2ccc3c(C(N)=O)nn(C4CN5CCC4CC5)c3c2n1` (centres unmarked) [Compound 103, 1-(1-azabicyclo[2.2.2]oct-3-yl)-8-(methylsulfanyl)-1H-pyrazolo[4,3-h]quinazoline-3-carboxamide], the values for the IC50 (at Full-length human PIM-1; at Full-length human PIM-2; in experiment [1]) were 15 nM, 28 nM and 221 nM, respectively.
For `CSc1ncc2ccc3c(C(N)=O)nn(C4CCOCC4)c3c2n1` [Compound 104, 8-(methylsulfanyl)-1-(tetrahydro-2H-pyran-4-yl)-1H-pyrazolo[4,3-h]quinazoline-3-carboxamide], in that order: 14 nM, 35 nM and 185 nM.
Take `CSc1ncc2ccc3c(C(N)=O)nn([C@H]4C[C@H](CO)C4)c3c2n1` [Compound 105, 1-[trans-3-(hydroxymethyl)cyclobutyl]-8-(methylsulfanyl)-1H-pyrazolo[4,3-h]quinazoline-3-carboxamide]: the IC50 was 3 nM against Full-length human PIM-1, 14 nM against Full-length human PIM-2 and 16.8 nM in experiment [1].
The corresponding values for `CSc1ncc2ccc3c(C(N)=O)nn([C@H]4C[C@@H](CO)C4)c3c2n1` [Compound 106, 1-[cis-3-(hydroxymethyl)cyclobutyl]-8-(methylsulfanyl)-1H-pyrazolo[4,3-h]quinazoline-3-carboxamide] are 3 nM, 13 nM and 21 nM.
For `NC(=O)c1nn(C2CCC(N)CC2)c2c1ccc1cnc(-c3ccsc3)nc12` (centres unmarked) [Compound 112, 1-(4-aminocyclohexyl)-8-(thiophen-3-yl)-1H-pyrazolo[4,3-h]quinazoline-3-carboxamide], the IC50 against Full-length human PIM-1 was found to be 300 nM; at Full-length human PIM-2 it was 43 nM. Moreover, the EC50 in the experiment with BaF3 parental line is 2000 nM; in the experiment on BaF3 PIM1 cells it was 1300 nM.

In general, IC50 refers to the concentration that gives 50% inhibition. A high value points to lower potency. Usually EC50 stands for the concentration that produces a half-maximal response.
